For data set [1], the system named is K562 chronic myeloid leukemia (CML) cells. The experiment in a line: K562 CML cell proliferation, 3-day growth inhibition by cell count. Format: cell-based, human. As to the method:
(§1) MCF-7 BC and K562 chronic myeloid leukemia (CML) cells were grown in standard RPMI 1640 medium. Seventy-five thousand MCF-7 and 100,000 K-562 cells grown in RPMI 1640 medium containing 10% fetal bovine serum (FBS, for MCF-7) or 0.5% bovine serum albumin (BSA, for K562) were seeded into wells of 24-well culture plates. After 24 h, MCF-7 cells were shifted to K562 medium (serum free). After an additional 24 h, the cultures were treated with various concentrations of peptides or a mixture of peptides for 72 h and counted. The assays were done in triplicates and repeated twice from different cell preparations. The cell numbers were expressed as means ± standard error (SE). Statistical analysis was done with a SlideWrite graphical software package (Encinitas, USA).

Data set [2] deals with normal mice. As to conditions: up to a 10 mg/kg bolus intraperitoneal (ip) dose; ref Otvos et al., 2011a; cited from earlier work. The text has this:
In 2011 we reported on the identification of the adiponectin active site and the design and functional characterization of adiponectin-based peptide compounds for the activation of AdipoR using glioma and breast cancer (BC) model systems (Otvos et al., [2011a]). The lead peptide, the 10-mer ADP355, primarily acts through AdipoR1 and induces typical adiponectin signaling pathways in cancer cells (Otvos et al., [2011a]).

Data set [3] can be described thus: Serum stability. Format: in vitro ADME. As to conditions: undiluted pooled mouse serum, RP-HPLC at 214 nm, triplicate; for half-life at 0.075 mg/mL: 10 μL of 3 mg/mL peptide in 390 μL serum, 37°C, 0, 30, 120, 240 min, TCA precipitation. As to the method:
(§2) For serum stability studies (Powell et al., [1993]) 10 μL of an aqueous peptide stock solution (3 mg/mL) was added to 390 μL pooled mouse serum in triplicate. The peptide-serum mixtures were thermostated at 37°C. After 0, 30, 120, and 240 min, 95 μL aliquots were mixed with 25 μL trichloroacetic acid (15%, w/v) and incubated for 10 min on ice. The precipitated proteins were separated by centrifugation (5 min, 12,000 × g, Eppendorf MiniSpin). The supernatant (90 μL) was neutralized with 8.5 μL aqueous sodium hydroxide solution (1 M) and mixed with 3% aqueous acetonitrile containing 0.1% TFA (121.5 μL). After centrifugation (5 min, 12,000 × g, Eppendorf MiniSpin) a 100 μL solution was analyzed by RP-HPLC using a Jupiter C18 column (2.0 mm inner diameter, 150 mm length, 5 μm particle size, 30 nm pore size; Phenomenex, Torrance) on a Beckman Gold HPLC System at 60°C. The gradient from 0.1% TFA in water (eluent A) to 60% acetonitrile in 0.1% aqueous TFA (eluent B) was developed using 1% B/min and the amide bond was monitored at 214 nm.

The conditions of data set [4]: estimated from degradation kinetics in diluted mouse serum; ref Otvos et al., 2011a; cited from earlier work. The text has this: Peptide ADP355 (355) is remarkably stable in mouse serum (Otvos et al., [2011a]). […] This stability level is quite high among peptide therapeutics, and is li ...
The subject of data set [5] is MCF-7 BC cells. The experiment in a line: MCF-7 BC cell proliferation, 3-day growth inhibition/promotion by cell count. It counts as cell-based. As for the experimental part:
as §1

The test system of data set [6] is MCF-7 BC cells. As to conditions: ADP400 100 nM with ADP355 100 nM; p = 0.003.
Data set [7] in a line: Aggregation / precipitation observed during assays. It counts as physicochemical. As to conditions: during serum stability assay procedure (mouse serum, TCA precipitation) or under the authors' experimental conditions. As for the experimental part: as §2
Data set [8] in a line: pooled mouse serum. The note with it: 37°C, up to 240 min.
Data set [9] concerns MCF-7 cells. Kind of data set: Agonistic activity screening of targeted peptide library in MCF-7 cells. Format: cell-based. As to conditions: biological activity screening in MCF-7 cells, targeted agonist library. The text has this:
Based on the success of our first-in-class AdipoR agonist ADP355 and recognizing the need for a similar AdipoR antagonist, we modified the composition of ADP355 to attenuate AdipoR functions and signaling. The starting point of the design was the activity of the 396-member peptide library we made earlier and from which the ADP355 agonist was selected, and a new central hexamer named peptide 3–8 (Table 2). […] While Pro1 in the C-terminal octamer (Pro3 in ADP355) is replaceable, Gly2, Tyr4, Phe6, Ala7, and DSer8 should be kept for binding. Because Nva3 recovers activation, Leu, the original amino acid in native adiponectin, should be used in this position. […] In the new antagonist Pro1 was replaced with 1-amino-cyclohexane carboxylic acid (Chex1), extremely useful as an N-terminal cyclic aliphatic amino acid mimic in designer antibacterial peptides (Cudic et al., [2002]). These considerations led to derivative 400 (ADP400), H-Chex-Gly-Leu-Tyr-DSer-Phe-Ala-DSer-NH2 (we called it Chex-DSer-8), as a potential AdipoR antagonist (Tables 1, 2).

Data set [10] relates to K562 chronic myeloid leukemia (CML) cells. The note with it: compared to unrelated human serum albumin; ref Yokota et al., 2000; cited from earlier work. The text has this:
The cellular models used here were selected among those known to express AdipoR, involve adiponectin in biological responses and yield reproducible results in our hands. Adiponectin protein has been linked to leukemia, lymphoma, and myeloma in individuals with above-average BMI (Obeid and Hebbard, [2012]). Human-origin K562 CML cells express both AdipoR forms although at relatively low levels (Ozturk et al., [2012]).

The text below walks through data of publication PMC4201147 (Frontiers in Chemistry, 2014).

“Also recorded” adds a separate entry of the source. Where two headings read alike, the source gives them in different places. Positions of bridges follow the written chain, without caps; N, C: chain ends. Non-standard residues stand in square brackets, D forms with d. Residues, ends and D or L forms follow the SMILES beside them. Chains are numbered I, II in the order given. No end group written: not given here. Ac6c = NC1(C(=O)O)CCCCC1; Dab = NCC[C@H](N)C(=O)O; Nva = CCC[C@H](N)C(=O)O

Usually half-life stands for the time needed for the level to fall by half in the phase considered.

For the molecule `CCC[C@H](NC(=O)[C@@H]1CCCN1C(=O)[C@@H](NC(=O)[C@H](N)CC(N)=O)[C@@H](C)CC)C(=O)N[C@@H](CC(C)C)C(=O)N[C@@H](Cc1ccc(O)cc1)C(=O)N[C@H](CO)C(=O)N[C@@H](Cc1ccccc1)C(=O)N[C@@H](C)C(=O)N[C@H](CO)C(N)=O` [ADP355] (H-[dN]IP[Nva]LY[dS]FA[dS]-NH2), the IC50 in data set [1] (K562, 72 h treatment, 10 nM–10 μM peptide, first assay, IC50 halfway between uninhibited growth and maximal growth inhibition, read-out: relative IC50, inhibition of K562 proliferation) was 200 nM. Also, the “toxic properties to normal mice” value in data set [2] is listed as “no toxic properties”. Further, the half-life at 0.075 mg/mL in data set [3] stood at 3 h. For the same molecule, the “half-life in whole plasma (estimated)” value in data set [4] was 1.25 h.

In data set [3], `CCC[C@H](NC(=O)[C@@H]1CCCN1C(=O)[C@@H](NC(=O)[C@H](N)CC(N)=O)[C@@H](C)CC)C(=O)N[C@@H](CC(C)C)C(=O)N[C@@H](Cc1ccc(O)cc1)C(=O)N[C@H](CO)C(=O)N[C@@H](Cc1ccccc1)C(=O)N[C@@H](C)C(=O)N[C@H](CO)C(=O)N[C@@H](Cc1c[nH]cn1)C(=O)N1CCC[C@H]1C(=O)NCC[C@H](NC(=O)[C@@H]1CCCN1C(=O)[C@H](Cc1c[nH]cn1)NC(=O)[C@@H](CO)NC(=O)[C@H](C)NC(=O)[C@H](Cc1ccccc1)NC(=O)[C@@H](CO)NC(=O)[C@H](Cc1ccc(O)cc1)NC(=O)[C@H](CC(C)C)NC(=O)[C@H](CCC)NC(=O)[C@@H]1CCCN1C(=O)[C@@H](NC(=O)[C@H](N)CC(N)=O)[C@@H](C)CC)C(N)=O` [ADP399] (I: H-[dN]IP[Nva]LY[dS]FA[dS]HP[Dab]-NH2 / II: H-[dN]IP[Nva]LY[dS]FA[dS]HP; amide I:13-II:C) returned a half-life at 0.075 mg/mL of 0.917 h. For the same molecule, in data set [3] (37°C, 2 h, read-out: intact peptide still present after 2 h incubation), the remaining at 2 h, 0.075 mg/mL stood at 16%.

Consider `CC(C)C[C@H](NC(=O)CNC(=O)C1(N)CCCCC1)C(=O)N[C@@H](Cc1ccc(O)cc1)C(=O)N[C@H](CO)C(=O)N[C@@H](Cc1ccccc1)C(=O)N[C@@H](C)C(=O)N[C@H](CO)C(N)=O` [ADP400] (H-[Ac6c]GLY[dS]FA[dS]-NH2), for which the “effect on MCF-7 cell growth without ADP355 present” value in data set [5] (100 nM, alone, compared with co-treatment, which reached the growth level of 10 nM leptin) is given as “promoted cell growth to an identical degree”. The “effect on ADP355-induced MCF-7 growth inhibition” value in data set [6] is “completely ameliorated”.

The molecule `CCC[C@@H]1NC(=O)[C@@H]2CCCN2C(=O)[C@H]([C@@H](C)CC)NC(=O)[C@@H](CC(N)=O)NC(=O)[C@H](CC(=O)O)NC(=O)[C@H](Cc2c[nH]cn2)NC(=O)[C@@H](CO)NC(=O)[C@H](C)NC(=O)[C@H](Cc2ccccc2)NC(=O)[C@@H](CO)NC(=O)[C@H](Cc2ccc(O)cc2)NC(=O)[C@H](CC(C)C)NC(=O)[C@H](CCC)NC(=O)[C@@H]2CCCN2C(=O)[C@H]([C@@H](C)CC)NC(=O)[C@@H](CC(N)=O)NC(=O)[C@@H]2CCCN2C(=O)[C@H](Cc2c[nH]cn2)NC(=O)[C@@H](CO)NC(=O)[C@H](C)NC(=O)[C@H](Cc2ccccc2)NC(=O)[C@@H](CO)NC(=O)[C@H](Cc2ccc(O)cc2)NC(=O)[C@H](CC(C)C)NC1=O` [compound 398] had an IC50 in data set [1] (72 h) of 300 nM. In addition, in [1] (K562, 3-day assay), the “concentration of maximal effect on K562 proliferation” value was 1 µM. Also, the figures for the aggregation / precipitation result in data set [7] and in data set [7] (listed as cyclic dimer) were “did aggregate during the serum stability assay” and “precipitated during the assay procedure”, respectively.

For the molecule “(H-DAsn-Ile-Pro-Nva-Leu-Tyr-DSer-Phe-Ala-DSer-His-Pro)2-Dab-NH2 (branched)”, in data set [8], the cleaved bond result was “Leu-Tyr; also recorded: Tyr-DSer”.

With “HCNIPGLYYF [compound 24, member of targeted agonist library]”, the Agonistic activity entry in data set [9] was “Normal”.

For the molecule “HCN[Nva]PGLYYF [compound 156, member of targeted agonist library]”, the Agonistic activity entry in data set [9] was “None”.

On to “HCN[Nva]PG[Nva]YYF [compound 288, member of targeted agonist library]”, for which the Agonistic activity entry in [9] is recorded as “Reduced”.

With NIPGLYYFAY [compound 25], the Agonistic activity result in data set [9] was “Normal”.

As to “NIPGLY[dS]FAY [compound 223, member of targeted agonist library]”, in data set [9], the Agonistic activity entry is “Weakest among P25 analogs”.

With “NIP[Nva]LYYFAY [compound 157, member of targeted agonist library]”, in data set [9], the Agonistic activity entry is listed as “Increased”.

Regarding PGLYYF [3–8, new central hexamer], in data set [9], the Agonistic activity result was “None”.

In the case of “PGLYYFAYHI [compound 26, member of targeted agonist library]”, the Agonistic activity result in data set [9] is “Normal”.

For the molecule “PGL[dS]YF[Nva]YHI [compound 290, member of targeted agonist library]”, the Agonistic activity entry in data set [9] is reported as “None”.

Turning to “[dN]IPGLYGFA[dS] [compound 91, member of targeted agonist library]”, in data set [9], the Agonistic activity entry was “Normal”.

As for “leptin: Leptin protein, positive control for exogenous mitogen actions [reference compound]”, in data set [5] (10 nM, positive control for exogenous mitogen), the “promotion of MCF-7 cell growth” value came out at 10%.

B1: adiponectin protein: full-sized adiponectin protein, 244 amino acid cytokine (protein, UniProt Q15848 1-244, looked up)
chain: MLLLGAVLLLLALPGHDQETTTQGPGVLLPLPKGACTGWMAGIPGHPGHNGAPGRDGRDGTPGEKGEKGDPGLIGPKGDIGETGVPGAEGPRGFPGIQGRKGEPGEGAYVYRSAFSVGLETYVTIPNMPIRFTKIFYNQQNHYDGSTGKFHCNIPGLYYFAYHITVYMKDVKVSLFKKDKAMLFTYDQYQENNVDQASGSVLLHLEVGDQVWLQVYGEGERNGLYADNDNDSTFTGFLLYHDTN
modifications: full-length
notes: full-sized adiponectin protein, 244 amino acid cytokine
For B1, in data set [10], the “inhibition of relative proliferation rate of K562 cells” value is 9%.
